# Experimental data reported in ChEMBL document CHEMBL5154770, “Discovery of novel ataxia telangiectasia mutated (ATM) kinase modulators: Computational simulation, biological evaluation and cancer combinational chemotherapy study” (Eur J Med Chem, 2022).
# The source made the active and inactive calls. No cut-off for these calls is given here.
# Key:
# NCI-H1299 [1] = test: Additive cytotoxicity against human NCI-H1299 cells assessed as combination index measured in presence of 5 uM KU55933 after 2 days by SRB assay; assay type: functional; conditions: time 2 day
# MCF7 [2] = test: Antagonistic cytotoxicity against human MCF7 cells in presence of 10 uM 3-Chloro-4-methoxy-N-((4-(oxazolo[4,5-b]pyridin-2-yl)phenyl)carbamothioyl)benzamide measured after 6 days by SRB assay; assay type: functional, cell-based; conditions: MCF7, 144 h
# SW480 [3] = test: Antagonistic cytotoxicity against human SW480 cells measured after 3 days in presence of 5 uM KU55933 by SRB assay; assay type: functional, cell-based; conditions: SW480, 72 h
# NCI-H1299 [4] = test: Synergistic cytotoxicity against human NCI-H1299 cells assessed as combination index measured in presence of 50 nM AZD0156 after 6 days by SRB assay; assay type: functional; conditions: time 6 day
# SW480 [5] = test: Antagonistic cytotoxicity against human SW480 cells measured after 9 days in presence of 3-Chloro-4-methoxy-N-((4-(oxazolo[4,5-b]pyridin-2-yl)phenyl)carbamothioyl)benzamide by SRB assay; assay type: functional, cell-based; conditions: time 9.0 day
# NCI-H1299 [6] = test: Additive cytotoxicity against human NCI-H1299 cells measured in presence of 5 uM KU55933 after 6 days by SRB assay; assay type: functional, cell-based; conditions: NCI-H1299, 144 h
# SW480 [7] = test: Antagonistic cytotoxicity against human SW480 cells assessed as combination index measured after 3 days in presence of 5 uM KU55933 by SRB assay; assay type: functional; conditions: time 3 day
# MCF7 [8] = test: Antagonistic cytotoxicity against human MCF7 cells measured after 2 days in presence of 5 uM KU60019 by SRB assay; assay type: functional, cell-based; conditions: MCF7, 48 h
# SW480 [9] = test: Antagonistic cytotoxicity against human SW480 cells measured after 3 days in presence of 5 uM KU60019 by SRB assay; assay type: functional, cell-based; conditions: SW480, 72 h
# MCF7 [10] = test: Synergistic cytotoxicity against human MCF7 cells assessed as combination index measured after 6 days in presence of 50 nM AZD0156 by SRB assay; assay type: functional; conditions: time 6 day
# SW480 [11] = test: Additive cytotoxicity against human SW480 cells measured after 9 days in presence of 5 uM KU55933 by SRB assay; assay type: functional, cell-based; conditions: SW480, 216 h
# MCF7 [12] = test: Cytotoxicity against human MCF7 cells measured after 6 days in presence of 5 uM 2(((24(2,4-dichlorobenzyl)oxy)naphthalen-1-yl)methyl)amino)ethan-1-ol by SRB assay; assay type: functional, cell-based; conditions: MCF7, 144 h
# NCI-H1299 [13] = test: Synergistic cytotoxicity against human NCI-H1299 cells assessed as combination index measured in presence of 5 uM KU60019 after 6 days by SRB assay; assay type: functional; conditions: time 6 day
# MCF7 [14] = test: Antagonistic cytotoxicity against human MCF7 cells measured after 2 days in presence of 50 nM AZD0156 by SRB assay; assay type: functional, cell-based; conditions: MCF7, 48 h
# MCF7 [15] = test: Antagonistic cytotoxicity against human MCF7 cells measured after 2 days in presence of 5 uM KU55933 by SRB assay; assay type: functional, cell-based; conditions: MCF7, 48 h
# SW480 [16] = test: Synergistic cytotoxicity against human SW480 cells measured after 9 days in presence of 5 uM KU60019 by SRB assay; assay type: functional, cell-based; conditions: SW480, 216 h
# MCF7 [17] = test: Antagonistic cytotoxicity against human MCF7 cells assessed as combination index measured after 2 days in presence of 5 uM 2(((24(2,4-dichlorobenzyl)oxy)naphthalen-1-yl)methyl)amino)ethan-1-ol by SRB assay; assay type: functional; conditions: time 2 day
# SW480 [18] = test: Antagonistic cytotoxicity against human SW480 cells assessed as combination index measured after 3 days in presence of 50 nM AZD0156 by SRB assay; assay type: functional; conditions: time 3 day
# NCI-H1299 [19] = test: Synergistic cytotoxicity against human NCI-H1299 cells measured in presence of 50 nM AZD0156 after 6 days by SRB assay; assay type: functional, cell-based; conditions: NCI-H1299, 144 h
# MCF7 [20] = test: Antagonistic cytotoxicity against human MCF7 cells assessed as combination index measured after 2 days in presence of 5 uM KU60019 by SRB assay; assay type: functional; conditions: time 2 day
# MCF7 [21] = test: Synergistic cytotoxicity against human MCF7 cells measured after 6 days in presence of 50 nM AZD0156 by SRB assay; assay type: functional, cell-based; conditions: MCF7, 144 h
# MCF7 [22] = test: Synergistic cytotoxicity against human MCF7 cells assessed as combination index in presence of 10 uM 3-Chloro-4-methoxy-N-((4-(oxazolo[4,5-b]pyridin-2-yl)phenyl)carbamothioyl)benzamide measured after 2 days by SRB assay; assay type: functional; conditions: time 2 day
# MCF7 [23] = test: Synergistic cytotoxicity against human MCF7 cells in presence of 10 uM 3-Chloro-4-methoxy-N-((4-(oxazolo[4,5-b]pyridin-2-yl)phenyl)carbamothioyl)benzamide measured after 2 days by SRB assay; assay type: functional, cell-based; conditions: MCF7, 48 h
# SW480 [24] = test: Antagonistic cytotoxicity against human SW480 cells assessed as combination index measured after 3 days in presence of 5 uM 2(((24(2,4-dichlorobenzyl)oxy)naphthalen-1-yl)methyl)amino)ethan-1-ol by SRB assay; assay type: functional; conditions: time 3 day
# SW480 [25] = test: Synergistic cytotoxicity against human SW480 cells measured after 9 days in presence of 50 nM AZD0156 by SRB assay; assay type: functional, cell-based; conditions: SW480, 216 h
# SW480 [26] = test: Synergistic cytotoxicity against human SW480 cells assessed as combination index measured after 9 days in presence of 50 nM AZD0156 by SRB assay; assay type: functional; conditions: time 9 day
# NCI-H1299 [27] = test: Cytotoxicity against human NCI-H1299 cells measured in presence of 5 uM 2(((2-(2,4-dichlorobenzyl)oxy)naphthalen-1-yl)methyl)amino)ethan-1-ol after 6 days by SRB assay; assay type: functional, cell-based; conditions: NCI-H1299, 144 h
# SW480 [28] = test: Cytotoxicity against human SW480 cells measured after 9 days in presence of 5 uM 2(((24(2,4-dichlorobenzyl)oxy)naphthalen-1-yl)methyl)amino)ethan-1-ol by SRB assay; assay type: functional, cell-based; conditions: SW480, 216 h
# MCF7 [29] = test: Antagonistic cytotoxicity against human MCF7 cells assessed as combination index in presence of 10 uM 3-Chloro-4-methoxy-N-((4-(oxazolo[4,5-b]pyridin-2-yl)phenyl)carbamothioyl)benzamide measured after 6 days by SRB assay; assay type: functional; conditions: time 6 day
# NCI-H1299 [30] = test: Synergistic cytotoxicity against human NCI-H1299 cells measured in presence of 5 uM KU60019 after 6 days by SRB assay; assay type: functional, cell-based; conditions: NCI-H1299, 144 h
# MCF7 [31] = test: Antagonistic cytotoxicity against human MCF7 cells measured after 2 days in presence of 5 uM 2(((24(2,4-dichlorobenzyl)oxy)naphthalen-1-yl)methyl)amino)ethan-1-ol by SRB assay; assay type: functional, cell-based; conditions: MCF7, 48 h
# NCI-H1299 [32] = test: Additive cytotoxicity against human NCI-H1299 cells measured in presence of 5 uM KU55933 after 2 days by SRB assay; assay type: functional, cell-based; conditions: NCI-H1299, 48 h
# SW480 [33] = test: Additive cytotoxicity against human SW480 cells assessed as combination index measured after 9 days in presence of 5 uM KU55933 by SRB assay; assay type: functional; conditions: time 9 day
# SW480 [34] = test: Synergistic cytotoxicity against human SW480 cells assessed as combination index measured after 9 days in presence of 5 uM KU60019 by SRB assay; assay type: functional; conditions: time 9 day
# MCF7 [35] = test: Antagonistic cytotoxicity against human MCF7 cells assessed as combination index measured after 2 days in presence of 5 uM KU55933 by SRB assay; assay type: functional; conditions: time 2 day
# MCF7 [36] = test: Antagonistic cytotoxicity against human MCF7 cells assessed as combination index measured after 2 days in presence of 50 nM AZD0156 by SRB assay; assay type: functional; conditions: time 2 day
# MCF7 [37] = test: Synergistic cytotoxicity against human MCF7 cells measured after 6 days in presence of 5 uM KU60019 by SRB assay; assay type: functional, cell-based; conditions: MCF7, 144 h
# NCI-H1299 [38] = test: Cytotoxicity against human NCI-H1299 cells measured in presence of 5 uM 2(((2-(2,4-dichlorobenzyl)oxy)naphthalen-1-yl)methyl)amino)ethan-1-ol after 2 days by SRB assay; assay type: functional, cell-based; conditions: NCI-H1299, 48 h
smiles,measurement,setting,value
COc1cc([C@@H]2c3cc4c(cc3[C@@H](O[C@@H]3O[C@@H]5CO[C@@H](C)O[C@H]5[C@H](O)[C@H]3O)[C@H]3COC(=O)[C@H]23)OCO4)cc(OC)c1O [ETOPOSIDE],CI,NCI-H1299 [1],0.98
same,IC50,MCF7 [2],650 nM
same,IC50,SW480 [3],3500 nM
same,CI,NCI-H1299 [4],0.39
same,Activity,SW480 [5],Active
same,IC50,NCI-H1299 [6],460 nM
same,CI,SW480 [7],1.4
same,IC50,MCF7 [8],87400 nM
same,IC50,SW480 [9],3800 nM
same,CI,MCF7 [10],0.19
same,IC50,SW480 [11],80 nM
same,IC50,MCF7 [12],660 nM
same,CI,NCI-H1299 [13],0.77
same,IC50,MCF7 [14],62700 nM
same,IC50,MCF7 [15],58800 nM
same,IC50,SW480 [16],< 10 nM
same,CI,MCF7 [17],2.8
same,CI,SW480 [18],1.3
same,IC50,NCI-H1299 [19],240 nM
same,CI,MCF7 [20],4.2
same,IC50,MCF7 [21],110 nM
same,CI,MCF7 [22],0.84
same,IC50,MCF7 [23],23600 nM
same,CI,SW480 [24],2
same,IC50,SW480 [25],< 10 nM
same,CI,SW480 [26],0.17
same,IC50,NCI-H1299 [27],710 nM
same,IC50,SW480 [28],70 nM
same,CI,MCF7 [29],1.16
same,IC50,NCI-H1299 [30],230 nM
same,IC50,MCF7 [31],46200 nM
same,IC50,NCI-H1299 [32],9370 nM
same,CI,SW480 [33],0.95
same,CI,SW480 [34],0.22
same,CI,MCF7 [35],2.7
same,CI,MCF7 [36],2.8
same,IC50,MCF7 [37],60 nM
same,IC50,NCI-H1299 [38],11100 nM
CCc1c2c(nc3ccc(OC(=O)N4CCC(N5CCCCC5)CC4)cc13)-c1cc3c(c(=O)n1C2)COC(=O)[C@]3(O)CC [IRINOTECAN],CI,NCI-H1299 [1],1.1
same,IC50,MCF7 [2],1880 nM
same,IC50,SW480 [3],7200 nM
same,CI,NCI-H1299 [4],0.25
same,Activity,SW480 [5],Active
same,IC50,NCI-H1299 [6],1670 nM
same,CI,SW480 [7],1.6
same,IC50,MCF7 [8],38100 nM
same,IC50,SW480 [9],15400 nM
same,CI,MCF7 [10],0.97
same,IC50,SW480 [11],600 nM
same,IC50,MCF7 [12],1680 nM
same,CI,NCI-H1299 [13],0.66
same,IC50,MCF7 [14],39200 nM
same,IC50,MCF7 [15],38100 nM
same,IC50,SW480 [16],< 120 nM
same,CI,MCF7 [17],2.1
same,CI,SW480 [18],2.4
same,IC50,NCI-H1299 [19],220 nM
same,CI,MCF7 [20],1.6
same,IC50,MCF7 [21],160 nM
same,CI,MCF7 [22],0.78
same,IC50,MCF7 [23],26300 nM
same,CI,SW480 [24],3.2
same,IC50,SW480 [25],< 120 nM
same,CI,SW480 [26],0.22
same,IC50,NCI-H1299 [27],1830 nM
same,IC50,SW480 [28],70 nM
same,CI,MCF7 [29],1.16
same,IC50,NCI-H1299 [30],270 nM
same,IC50,MCF7 [31],42400 nM
same,IC50,NCI-H1299 [32],13100 nM
same,CI,SW480 [33],1.02
same,CI,SW480 [34],0.25
same,CI,MCF7 [35],1.4
same,CI,MCF7 [36],1.3
same,IC50,MCF7 [37],1980 nM
same,IC50,NCI-H1299 [38],11100 nM
